# Biological target: T1, ETB receptor (Sus scrofa, UniProt P35463)
# T1 construct: The plasma membrane of porcine lung (2 mg of protein); from tissue; host or cells: porcine lung plasma membrane
# T1 sequence (P35463 27-443): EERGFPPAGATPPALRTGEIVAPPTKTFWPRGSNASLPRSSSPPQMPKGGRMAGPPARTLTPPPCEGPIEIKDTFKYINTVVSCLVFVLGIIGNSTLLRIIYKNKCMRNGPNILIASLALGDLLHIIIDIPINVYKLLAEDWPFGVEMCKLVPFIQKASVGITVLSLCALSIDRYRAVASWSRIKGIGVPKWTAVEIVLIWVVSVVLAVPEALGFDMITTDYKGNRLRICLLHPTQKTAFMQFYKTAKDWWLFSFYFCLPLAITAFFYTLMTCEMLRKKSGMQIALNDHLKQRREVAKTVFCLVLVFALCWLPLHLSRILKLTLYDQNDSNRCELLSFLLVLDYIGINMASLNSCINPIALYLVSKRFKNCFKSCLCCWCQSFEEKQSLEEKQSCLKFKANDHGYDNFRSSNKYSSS
# Experiment: Scatchard analysis of radioligand binding, ETB receptor
# Conditions: porcine lung plasma membrane, [^125 I]ET-3 alone
# Protocol: After the incubation, unbound [^125 I]ETs were separated by centrifugation at 20,000×g for 20 min at 4° C. followed by aspiration of the supernatant. The radioactivity in the membrane pellet is measured in Wallac-1470 Wizard autogamma counter (Pharmacia). Nonspecific binding is defined as membrane-associated radioactivity in the presence of saturating concentrations of ETs (100 nM). Nonspecific binding is subtracted from the total binding and the difference is defined as specific binding. Total binding is always less than 15% of the total radioactivity added. […] From the inhibition curves for the binding of [^125 I]ETs, the apparant binding affinity constant (Ki) of one of the test compounds is calculated as a parameter of the affinity for the ETA and ETB receptors, as shown in the following table.
row,Molecule,Bmax [fmol/mg protein]
1,[^125 I]ET-3: radiolabelled endothelin-3 purchased from Amersham International; ETs are vasoactive peptides with 21 amino acid residues,362

# Biological target: T1, ETB receptor
# Experiment: Endothelin (ET) receptor binding assay, ETB receptor
# Conditions: [^125 I]ET-3 alone; porcine lung plasma membrane; 37° C., 1 hour, pH 7.4
# Protocol: Endothelin (ET) receptor binding assay
# After the incubation, unbound [^125 I]ETs were separated by centrifugation at 20,000×g for 20 min at 4° C. followed by aspiration of the supernatant. The radioactivity in the membrane pellet is measured in Wallac-1470 Wizard autogamma counter (Pharmacia). Nonspecific binding is defined as membrane-associated radioactivity in the presence of saturating concentrations of ETs (100 nM). Nonspecific binding is subtracted from the total binding and the difference is defined as specific binding.
row,Molecule,Ki [nM]
1,"Cc1cc(C)cc(C(=O)N(C)[C@H](Cc2ccc(-c3ccccc3)cc2)C(=O)NC(Cc2c[nH]c3ccccc23)C(=O)NS(=O)(=O)c2ccccc2)c1 (some centres unmarked) [Example 1, N-benzenesulfonyl-[N-(3,5-dimethylbenzoyl)-N-methyl-3-(biphenyl-4-yl)-(D)-alanyl]-(D,L)-tryptophanamide]",0.9
2,"CCCCS(=O)(=O)NC(=O)[C@H](Cc1c[nH]c2ccccc12)NC(=O)C(Cc1ccc(-n2cncn2)cc1)N(C)C(=O)c1cc(C)cc(C)c1 (some centres unmarked) [Example 12, N-butanesulfonyl-[N-(3,5-dimethylbenzoyl)-N-methyl-3-[4-(1,2,4-triazol-1-yl)-phenyl]-(D,L)-alanyl]-(L)-tryptophanamide]",0.16
3,Cc1cc(C)cc(C(=O)N(C)[C@H](Cc2ccc(-c3ccno3)cc2)C(=O)NC(Cc2c[nH]c3ccccc23)C(=O)NS(=O)(=O)c2ccccc2)c1 (some centres unmarked) [Example 6],0.34
4,"CCCCS(=O)(=O)NC(=O)[C@@H](NC(=O)C(Cc1ccc(-c2ccno2)cc1)N(C)C(=O)c1cc(C)cc(C)c1)[C@@H](C)CC (some centres unmarked) [10(a), N-butanesulfonyl-[N-(3,5-dimethylbenzoyl)-N-methyl-3-[4-(5-isoxazolyl)-phenyl]-(D,L)-alanyl]-(L)-isoleucineamide]",3.5
5,"CCCCS(=O)(=O)NC(=O)[C@H](Cc1c[nH]c2ccccc12)NC(=O)C(Cc1ccc(-n2ccnn2)cc1)N(C)C(=O)c1cc(C)cc(C)c1 (some centres unmarked) [Example 13, N-butanesulfonyl-[N-(3,5-dimethylbenzoyl)-N-methyl-3-[4-(1,2,3-triazol-1-yl)-phenyl]-(D,L)-alanyl]-(L)-tryptophanamide]",0.27
6,"Cc1cc(C)cc(C(=O)N(C)[C@H](Cc2ccc(-c3ccsc3)cc2)C(=O)NC(Cc2c[nH]c3ccccc23)C(=O)NS(=O)(=O)c2cccs2)c1 (some centres unmarked) [Example 2, N-(2-thienyl)sulfonyl-[N-(3,5-dimethylbenzoyl)-N-methyl-(D)-3-[4-(3-thienyl)phenyl]-alanyl]-(D,L)-tryptophanamide]",0.3
7,"C=CCS(=O)(=O)NC(=O)[C@H](Cc1c[nH]c2ccccc12)NC(=O)C(Cc1ccc(-c2ccno2)cc1)N(C)C(=O)c1cc(C)cc(C)c1 (some centres unmarked) [Example 9, N-(2-propene)sulfonyl-[N-(3,5-dimethylbenzoyl)-N-methyl-3-[4-(5-isoxazolyl)-phenyl]-(D,L)-alanyl]-(L)-tryptophanamide]",0.23
8,"CCCCS(=O)(=O)NC(=O)[C@H](Cc1c[nH]c2ccccc12)NC(=O)C(Cc1ccc(-c2ccno2)cc1)N(C)C(=O)c1cc(C)cc(C)c1 (some centres unmarked) [Example 8, N-butanesulfonyl-[N-(3,5-dimethylbenzoyl)-N-methyl-3-[4-(5-isoxazolyl)-phenyl]-(D,L)-alanyl]-(L)-tryotophanamide]",0.24
9,"CCCCS(=O)(=O)NC(=O)[C@@H](NC(=O)C(Cc1ccc(-c2ccno2)cc1)N(C)C(=O)c1cc(C)cc(C)c1)C(C)C (some centres unmarked) [Example 11, N-butanesulfonyl-[N-(3,5-dimethylbenzoyl)-N-methyl-3-[4-(5-isoxazolyl)-phenyl]-(D,L)-alanyl]-(L)-valineamide]",1.2
10,"Cc1cc(C)cc(C(=O)N(C)[C@H](Cc2ccc(O)cc2)C(=O)NC(Cc2c[nH]c3ccccc23)C(=O)NS(=O)(=O)c2ccccc2)c1 (some centres unmarked) [7(9), N-benzenesulfonyl-[N-(3,5-dimethylbenzoyl)-N-methyl-3-(4-hydroxyphenyl)-(D)-alanyl]-(D,L)-tryptophanamide]",2.3
